Test results reported in ChEMBL document CHEMBL3885881, “DrugMatrix”.

Species on record: Rattus norvegicus
Assay: DrugMatrix - Regimen: Daily Repeat
Format: toxicity, organism-based, Sprague-Dawley
Parameters: regimen Daily Repeat, gender Male, age 6-8 weeks
Conditions: in vivo, po, route oral GAVAGE, vehicle .5 % CMC; for ABSOLUTE BASOPHIL / ABSOLUTE EOSINOPHIL / ABSOLUTE LYMPHOCYTE / ABSOLUTE MONOCYTE / ABSOLUTE SEGMENTED NEUTROPHIL / BASOPHIL / EOSINOPHIL / ERYTHROCYTE COUNT / HEMATOCRIT / HEMOGLOBIN / LEUKOCYTE COUNT / LYMPHOCYTE / MEAN CORPUSCULAR HEMOGLOBIN / MEAN CORPUSCULAR HEMOGLOBIN CONCENTRATION / MEAN CORPUSCULAR VOLUME / MONOCYTE / NEUTROPHIL / NUCLEATED RED BLOOD CELLS / PLATELET COUNT: tissue Blood; for ALANINE AMINOTRANSFERASE / ALBUMIN / ALKALINE PHOSPHATASE / ASPARTATE AMINOTRANSFERASE / BLOOD UREA NITROGEN / CARBON DIOXIDE / CHLORIDE / CHOLESTEROL / CREATINE PHOSPHOKINASE / CREATININE / GLUCOSE / LACTATE DEHYDROGENASE / LIPASE / PHOSPHORUS / POTASSIUM / SODIUM / TOTAL BILIRUBIN / TOTAL PROTEIN / URIC ACID: tissue Plasma
[1] = 500 mg/kg, 120 h, dose level Low, time 5 day
[2] = 1500 mg/kg, 72 h, dose level High, time 3 day
[3] = 1500 mg/kg, 120 h, dose level High, time 5 day

Structure (SMILES): CC(C)(Sc1cc(C(C)(C)C)c(O)c(C(C)(C)C)c1)Sc1cc(C(C)(C)C)c(O)c(C(C)(C)C)c1 [PROBUCOL]
- ABSOLUTE BASOPHIL [1]: 0 CELLS/uL
- ABSOLUTE EOSINOPHIL [1]: 211 CELLS/uL
- ABSOLUTE LYMPHOCYTE [1]: 10866.33 CELLS/uL
- ABSOLUTE MONOCYTE [1]: 0 CELLS/uL
- ABSOLUTE SEGMENTED NEUTROPHIL [1]: 1022.67 CELLS/uL
- BASOPHIL [1]: 0%
- EOSINOPHIL [1]: 1.67%
- ERYTHROCYTE COUNT [1]: 5.74 x10E6/uL
- HEMATOCRIT [1]: 36.53%
- HEMOGLOBIN [1]: 13.67 G/DL
- LEUKOCYTE COUNT [1]: 12.1 x10E3/uL
- LYMPHOCYTE [1]: 90%
- MEAN CORPUSCULAR HEMOGLOBIN [1]: 23.87 pg
- MEAN CORPUSCULAR HEMOGLOBIN CONCENTRATION [1]: 37.43 G/DL
- MEAN CORPUSCULAR VOLUME [1]: 63.7 fL
- MONOCYTE [1]: 0%
- NEUTROPHIL [1]: 8.33%
- NUCLEATED RED BLOOD CELLS [1]: 0 /100WBC
- PLATELET COUNT [1]: 1159.33 x10E3/uL
- ALANINE AMINOTRANSFERASE [1]: 45.67 u/L
- ALBUMIN [1]: 4.33 G/DL
- ALKALINE PHOSPHATASE [1]: 362 u/L
- ASPARTATE AMINOTRANSFERASE [1]: 76.33 u/L
- BLOOD UREA NITROGEN [1]: 15.33 mg/dL
- CARBON DIOXIDE [1]: 25.67 mmol/L
- CHLORIDE [1]: 102 MEQ/L
- CHOLESTEROL [1]: 70.33 mg/dL
- CREATINE PHOSPHOKINASE [1]: 180.67 u/L
- CREATININE [1]: 0.2 mg/dL
- GLUCOSE [1]: 163.67 mg/dL
- LACTATE DEHYDROGENASE [1]: 162.67 u/L
- LIPASE [1]: 9 u/L
- PHOSPHORUS [1]: 11.63 mg/dL
- POTASSIUM [1]: 6.21 MEQ/L
- SODIUM [1]: 144 MEQ/L
- TOTAL BILIRUBIN [1]: 0.2 mg/dL
- TOTAL PROTEIN [1]: 6.1 G/DL
- URIC ACID [1]: 1.83 mg/dL
- ABSOLUTE BASOPHIL [2]: 0 CELLS/uL
- ABSOLUTE EOSINOPHIL [2]: 183 CELLS/uL
- ABSOLUTE LYMPHOCYTE [2]: 12835.33 CELLS/uL
- ABSOLUTE MONOCYTE [2]: 38 CELLS/uL
- ABSOLUTE SEGMENTED NEUTROPHIL [2]: 1443.67 CELLS/uL
- BASOPHIL [2]: 0%
- EOSINOPHIL [2]: 1.33%
- ERYTHROCYTE COUNT [2]: 5.49 x10E6/uL
- HEMATOCRIT [2]: 34.77%
- HEMOGLOBIN [2]: 13.37 G/DL
- LEUKOCYTE COUNT [2]: 14.5 x10E3/uL
- LYMPHOCYTE [2]: 88.33%
- MEAN CORPUSCULAR HEMOGLOBIN [2]: 24.37 pg
- MEAN CORPUSCULAR HEMOGLOBIN CONCENTRATION [2]: 38.47 G/DL
- MEAN CORPUSCULAR VOLUME [2]: 63.33 fL
- MONOCYTE [2]: 0.33%
- NEUTROPHIL [2]: 10%
- NUCLEATED RED BLOOD CELLS [2]: 0 /100WBC
- PLATELET COUNT [2]: 1374.67 x10E3/uL
- ALANINE AMINOTRANSFERASE [2]: 49.33 u/L
- ALBUMIN [2]: 4.2 G/DL
- ALKALINE PHOSPHATASE [2]: 412 u/L
- ASPARTATE AMINOTRANSFERASE [2]: 77.33 u/L
- BLOOD UREA NITROGEN [2]: 14.67 mg/dL
- CARBON DIOXIDE [2]: 27.33 mmol/L
- CHLORIDE [2]: 100 MEQ/L
- CHOLESTEROL [2]: 65.67 mg/dL
- CREATINE PHOSPHOKINASE [2]: 249.33 u/L
- CREATININE [2]: 0.19 mg/dL
- GLUCOSE [2]: 153.67 mg/dL
- LACTATE DEHYDROGENASE [2]: 144 u/L
- LIPASE [2]: 9 u/L
- PHOSPHORUS [2]: 12.87 mg/dL
- POTASSIUM [2]: 7.14 MEQ/L
- SODIUM [2]: 143.67 MEQ/L
- TOTAL BILIRUBIN [2]: 0.17 mg/dL
- TOTAL PROTEIN [2]: 5.83 G/DL
- URIC ACID [2]: 1.67 mg/dL
- ABSOLUTE BASOPHIL [3]: 0 CELLS/uL
- ABSOLUTE EOSINOPHIL [3]: 76.67 CELLS/uL
- ABSOLUTE LYMPHOCYTE [3]: 11157.33 CELLS/uL
- ABSOLUTE MONOCYTE [3]: 39 CELLS/uL
- ABSOLUTE SEGMENTED NEUTROPHIL [3]: 1027 CELLS/uL
- BASOPHIL [3]: 0%
- EOSINOPHIL [3]: 0.67%
- ERYTHROCYTE COUNT [3]: 5.53 x10E6/uL
- HEMATOCRIT [3]: 34.87%
- HEMOGLOBIN [3]: 13.07 G/DL
- LEUKOCYTE COUNT [3]: 12.3 x10E3/uL
- LYMPHOCYTE [3]: 90.67%
- MEAN CORPUSCULAR HEMOGLOBIN [3]: 23.63 pg
- MEAN CORPUSCULAR HEMOGLOBIN CONCENTRATION [3]: 37.5 G/DL
- MEAN CORPUSCULAR VOLUME [3]: 63.03 fL
- MONOCYTE [3]: 0.33%
- NEUTROPHIL [3]: 8.33%
- NUCLEATED RED BLOOD CELLS [3]: 0 /100WBC
- PLATELET COUNT [3]: 1307 x10E3/uL
- ALANINE AMINOTRANSFERASE [3]: 47.67 u/L
- ALBUMIN [3]: 4.33 G/DL
- ALKALINE PHOSPHATASE [3]: 423.67 u/L
- ASPARTATE AMINOTRANSFERASE [3]: 74 u/L
- BLOOD UREA NITROGEN [3]: 15.33 mg/dL
- CARBON DIOXIDE [3]: 26.33 mmol/L
- CHLORIDE [3]: 102.33 MEQ/L
- CHOLESTEROL [3]: 63 mg/dL
- CREATINE PHOSPHOKINASE [3]: 227.67 u/L
- CREATININE [3]: 0.2 mg/dL
- GLUCOSE [3]: 158.67 mg/dL
- LACTATE DEHYDROGENASE [3]: 174.33 u/L
- LIPASE [3]: 8.33 u/L
- PHOSPHORUS [3]: 12.1 mg/dL
- POTASSIUM [3]: 6.79 MEQ/L
- SODIUM [3]: 145.27 MEQ/L
- TOTAL BILIRUBIN [3]: 0.2 mg/dL
- TOTAL PROTEIN [3]: 6.13 G/DL
- URIC ACID [3]: 1.63 mg/dL
